The term pEC50 denotes −log10 of the EC50, conventionally taken in molar units. As a reminder, the CC50 is the concentration that lowers cell viability or growth by half. For orientation: Tmax means the time from dosing to the highest level. One may read the Cmax as the peak of the concentration-time curve. Usually AUC(0-t) stands for exposure summed from dosing to a finite time, without extrapolation to infinity. One may read the MRT as a mean duration of stay, worked out from the concentration-time curve. Usually half-life stands for the time in which the quantity being followed falls by half. Higher therefore signals slow loss. The term LD50 denotes the dose expected to kill half of the subjects tested.

pEC50: −log10 of the molar value. Activity calls are given as the source filed them. No cut-off for these calls is given here.

The subject of series [1] is Hepatitis C virus. Description: Antiviral activity against HCV J6/JFH/JC-1 infected in human Huh7.5 cells assessed as inhibition of NS3/4A D168V mutant levels at 0.01 to 1 uM treated with fresh media containing compound every 2 days by Western blot method. The series is classed as functional, organism-based. The settings on record: Hepacivirus hominis. (In general: Immunoblotting shows a protein as a band on a membrane.)

Series [2] relates to Hepatitis C virus. Description: Antiviral activity against HCV J6/JFH/JC-1 infected in human Huh7.5 cells harboring NS3/4A D168V mutant assessed as inhibition of viral core protein levels at 0.01 to 1 uM treated with fresh media containing compound every 2 days by Western blot method. The class given is functional, organism-based. The settings on record: Hepacivirus hominis.

In series [3] the test system is Hepatitis C virus. Description: Antiviral activity against HCV J6/JFH/JC-1 infected in human Huh7.5 cells assessed as inhibition of viral RNA replication after 72 hrs by qRT-PCR method. The series is classed as functional, organism-based, Hepacivirus hominis. As to conditions: J6/JFH/JC-1, Huh7.5, 72 h. A general note: In qPCR the cycle at which signal appears reflects the starting amount.

Series [4] can be described thus: Cytotoxicity against human Huh7.5 cells after 72 hrs by MTT assay. The class given is cell-based. In general terms: Tetrazolium dyes change colour on reduction, which living cells bring about.
Series [5] can be described thus: Selectivity index, ratio of CC50 for human Huh7.5 cells to EC50 for HCV J6/JFH/JC-1. The class given is toxicity. As to conditions: read-out: Ratio CC50/EC50.
The test system of series [6] is Hepatitis C virus. Description: Antiviral activity against HCV infected in human GS4.3 cells assessed as inhibition of NS3/4A levels at 0.15 uM treated with fresh media containing compound every 2 days measured after 6 days by Western blot method. The series is classed as functional, organism-based. The settings on record: Hepacivirus hominis.
The test system of series [7] is Hepatitis C virus. Description: Antiviral activity against HCV infected in human GS4.3 cells assessed as inhibition of viral core protein levels at 0.15 uM treated with fresh media containing compound every 2 days measured after 6 days by Western blot method. The class given is functional, organism-based. The settings on record: Hepacivirus hominis.
A short description of series [8]: Tmax in mouse at 25 mg/kg, po after 0.25 to 6 hrs. The class given is ADME, organism-based. The settings on record: in vivo.
Series [9] is described as follows: Cmax in mouse at 25 mg/kg, po after 0.25 to 6 hrs. The series is classed as ADME, organism-based. On the set-up: dose 25 mg/kg, route oral. The settings on record: in vivo.
A short description of series [10]: AUC (0 to t) in mouse at 25 mg/kg, po after 0.25 to 6 hrs. The series is classed as ADME, organism-based. On the set-up: time upper 6 hr, time lower 0.25 hr, dose 25 mg/kg, route oral. The settings on record: in vivo.
Series [11] is described as follows: MRT in mouse at 25 mg/kg, po after 0.25 to 6 hrs. The settings on record: in vivo. The class given is ADME, organism-based.
Series [12] is described as follows: Half life in mouse at 25 mg/kg, po after 0.25 to 6 hrs. The class given is ADME, organism-based. The settings on record: in vivo.
Series [13] is described as follows: Acute toxicity in po dosed Kunming mouse measured for 7 days. The series is classed as organism-based. As to conditions: in vivo.

As for `COc1ccc2c(O[C@@H]3C[C@H]4C(=O)N[C@]5(C(=O)NS(=O)(=O)C6CC6)C[C@H]5/C=C/CCCCN(C)C(=O)[C@@H]4C3)cc(-c3nc(C(C)C)cs3)nc2c1C`, the inhibition entry in the series with Hepatitis C virus [1] and with Hepatitis C virus [2] was “inactive” throughout.

On to `COc1cc(C(=O)N2CCCC3=C[C@H]4C[C@H](CN5CCCC[C@H]45)[C@@H]32)cc(OC)c1OC`, for which, in the series with Hepatitis C virus [3], the pEC50 was 4.55. In addition, half-maximal cytotoxicity in [4] (CC50 at 72 h) was put at 290 µM. The selectivity ratio in [5] was determined as 10.2.

For the compound `N#Cc1ccccc1S(=O)(=O)N1CCCC2=C[C@H]3C[C@H](CN4CCCC[C@H]34)[C@@H]21`, in the series with Hepatitis C virus [3], the pEC50 was 5.48. For the same compound, in series [4], the midpoint of cytotoxicity, the CC50 at 72 h, lay at 256 µM. Also, the selectivity ratio in series [5] came to 77.1.

With `O=C1c2ccccc2C(=O)N1CCS(=O)(=O)N1CCCC2=C[C@H]3C[C@H](CN4CCCC[C@H]34)[C@@H]21`, in the series on Hepatitis C virus [3], the pEC50 is 4.16. Moreover, the CC50 at 72 h in series [4] is > 500 µM. The selectivity ratio in series [5] is > 7.29.

Take `COC(=O)c1ccc(C(=O)N2CCCC3=C[C@H]4C[C@H](CN5CCCC[C@H]45)[C@@H]32)cc1`: the pEC50 in the series on Hepatitis C virus [3] was 4.94. Further, in series [4], the CC50 at 72 h was 271 µM. Further, the selectivity ratio in series [5] stood at 23.4.

With `COC(=O)c1ccccc1S(=O)(=O)N1CCCC2=C[C@H]3C[C@H](CN4CCCC[C@H]34)[C@@H]21`, the pEC50 in the series on Hepatitis C virus [3] was 5.09. This compound also yielded a CC50 at 72 h in series [4] of 269 µM. Besides, in [5], the selectivity ratio was determined as 32.8.

Turning to `COc1ccccc1CN1CCCC2=C[C@H]3C[C@H](CN4CCCC[C@H]34)[C@@H]21`, in the series on Hepatitis C virus [3], the pEC50 is 5.17. In series [4], this compound showed a CC50 at 72 h of 69.3 µM. The selectivity ratio in series [5] was determined as 10.2.

Regarding `COc1ccc(C(=O)N2CCCC3=C[C@H]4C[C@H](CN5CCCC[C@H]45)[C@@H]32)cc1`, the pEC50 in the series with Hepatitis C virus [3] was 4.20. In addition, the CC50 at 72 h in [4] is > 500 µM. Besides, the selectivity ratio in series [5] is > 8.

Regarding `COc1ccc(CN2CCCC3=C[C@H]4C[C@H](CN5CCCC[C@H]45)[C@@H]32)cc1`, the pEC50 in the series with Hepatitis C virus [3] was 6.02. In series [4], this compound registered a CC50 at 72 h of 83.1 µM. Besides, the selectivity ratio in series [5] was determined as 86.6.

On to `COC(=O)N[C@H](C(=O)N1CCC[C@H]1c1ncc(-c2ccc(-c3ccc(-c4cnc([C@@H]5CCCN5C(=O)[C@@H](NC(=O)OC)C(C)C)[nH]4)cc3)cc2)[nH]1)C(C)C`, for which the inhibition result with Hepatitis C virus [6] and in the series on Hepatitis C virus [7] was “Active” in each case.

As for `O=S(=O)(c1ccncc1)N1CCCC2=C[C@H]3C[C@H](CN4CCCC[C@H]34)[C@@H]21`, the pEC50 in the series on Hepatitis C virus [3] was 4.94. The compound further had a CC50 at 72 h in series [4] of 371 µM. The selectivity ratio in series [5] came to 32.6.

Take `O=S(=O)(c1cccc2cccnc12)N1CCCC2=C[C@H]3C[C@H](CN4CCCC[C@H]34)[C@@H]21`: the pEC50 in the series on Hepatitis C virus [3] was 5.13. In addition, the CC50 at 72 h in series [4] was 249 µM. Also, the selectivity ratio in series [5] turned out to be 33.8.

Regarding `O=C(O)c1ccccc1S(=O)(=O)N1CCCC2=C[C@H]3C[C@H](CN4CCCC[C@H]34)[C@@H]21`, the pEC50 with Hepatitis C virus [3] is 4.33. Also, in series [4], the CC50 at 72 h was > 500 µM. Besides, the selectivity ratio in series [5] is > 10.8.

For `COc1ccc(S(=O)(=O)N2CCCC3=C[C@H]4C[C@H](CN5CCCC[C@H]45)[C@@H]32)cc1C`, the pEC50 in the series on Hepatitis C virus [3] was 5.31. This compound displayed a CC50 at 72 h in series [4] of 73.2 µM. Moreover, the selectivity ratio in series [5] is 15.

In the case of `N#Cc1ccc(S(=O)(=O)N2CCCC3=C[C@H]4C[C@H](CN5CCCC[C@H]45)[C@@H]32)cc1`, the pEC50 with Hepatitis C virus [3] is 5.47. Further, in [4], half-maximal cytotoxicity (CC50 at 72 h) was put at 265 µM. In addition, in [5], the selectivity ratio came out at 78. The Tmax in [8] was 19.8 min. This compound also gave a Cmax in series [9] of 410 nM. In addition, in series [10], the AUC(0-t) turned out to be 0.77 µM·h. Also, in series [11], the MRT turned out to be 1.82 h. This compound also had a half-life in [12] of 118 min.

For the compound `COc1ccc(S(=O)(=O)N2CCCC3=C[C@H]4C[C@H](CN5CCCC[C@H]45)[C@@H]32)cc1`, the pEC50 with Hepatitis C virus [3] was 5.22. Also, the CC50 at 72 h in series [4] came to 102 µM. Also, the selectivity ratio in series [5] came out at 16.9.

With `NCCS(=O)(=O)N1CCCC2=C[C@H]3C[C@H](CN4CCCC[C@H]34)[C@@H]21`, the pEC50 in the series on Hepatitis C virus [3] was 5.57. Further, in series [4], the CC50 at 72 h came out at 264 µM. For the same compound, in [5], the selectivity ratio was found to be 97.2. Moreover, the Tmax in [8] was 70.2 min. The compound also came in with a maximum concentration (Cmax) in series [9] of 1450 nM. The AUC(0-t) in series [10] was 7.78 µM·h. In [11], the MRT amounted to 5.96 h. In series [12], the half-life was 612 min. This compound displayed an LD50 at 168 h in [13] of 750 mg/kg.

Take `COC(=O)c1ccc(S(=O)(=O)N2CCCC3=C[C@H]4C[C@H](CN5CCCC[C@H]45)[C@@H]32)cc1`: in the series with Hepatitis C virus [3], the pEC50 was 4.09. The CC50 at 72 h in [4] amounted to 283 µM. Besides, in series [5], the selectivity ratio was 3.51.

As to `CC(=O)Nc1ccc(S(=O)(=O)N2CCCC3=C[C@H]4C[C@H](CN5CCCC[C@H]45)[C@@H]32)cc1`, in the series with Hepatitis C virus [3], the pEC50 is 4.26. The compound also came in with a CC50 at 72 h in series [4] of 309 µM. Moreover, the selectivity ratio in [5] was 5.64.

(Values after ChEMBL document CHEMBL4251597, “Discovery and evolution of aloperine derivatives as a new family of HCV inhibitors with novel mechanism” (Eur J Med Chem, 2018).)
